Test results published in US20030039673A1, “DISINFECTION BY PARTICLE-BOUND AND INS[…]” (priority 1997, published 2003).

How the values were obtained:
[1] = Detergent binding to resin, foaming of supernatant; format: physicochemical; parameters: key: foaming presence (+); absence (−); details: 10 mM detergent solution incubated with resin beads
[2] = Detergent binding to resin, foaming of supernatant; format: physicochemical; parameters: key: foaming presence (+); absence (−); details: 10 mM detergent solution incubated with resin beads; remark: listed apart in the source
EMC virus = assay: Viral end point assay of EMC-spiked plasma; format: cell-based
[3] = Detergent binding to resin, foaming of supernatant; format: physicochemical; parameters: key: foaming presence (+); absence (−); details: 10 mM detergent solution incubated with resin beads; remark: listed apart in the source
viruses = details: even in the presence of plasma proteins; basis of copending application Ser. No. 08/785,984; cited from earlier work

Molecule	foaming of supernatant as indicator of detergent presence, Calbiosorb [1]	foaming of supernatant as indicator of detergent presence, Polystyrene [2]	Titer (EMC virus; 100 mM triclosan in 2% aqueous Triton X-100, 5 mL added to 50 mL EMC-spiked plasma, 60 min room temperature)	foaming of supernatant as indicator of detergent presence, Purolite [3]	level effective at inactivating some viruses (viruses)	hemolysis (red blood cells (RBC))	virucidal effectiveness compared with Triton plus triclosan (EMC virus; 0.2% Triton alone)
benzalkonium chloride [BC]	−	+					
Oc1cc(Cl)ccc1Oc1ccc(Cl)cc1Cl [Triclosan, triclosan]			0				
CCCCCCCCOC(=O)CC(C(=O)OCCCCCCCC)S(=O)(=O)O (stereo not drawn) [DSS, dioctyl sulfosuccinate]	−	+		−			
C[C@H](CCC(=O)O)[C@H]1CC[C@H]2[C@@H]3CC[C@@H]4C[C@H](O)CC[C@]4(C)[C@H]3C[C@H](O)[C@]12C [Deoxycholate, deoxycholic acid]	−	+		−			
C[C@H](CCC(=O)NCCC[N+](C)(C)CCCS(=O)(=O)[O-])[C@H]1CC[C@H]2[C@@H]3[C@H](O)C[C@@H]4C[C@H](O)CC[C@]4(C)[C@H]3C[C@H](O)[C@]12C [CHAPS, 3-[(3-Chloramidopropyl)-dimethylammonio]-1-propanesulfanate]	−	+					
CCCCCCCCCCCCOS(=O)(=O)[O-].[Na+] [SDS, sodium dodecylsulfate]	−	+		−			
C[C@H](CCC(=O)O)[C@H]1CC[C@H]2[C@@H]3[C@H](O)C[C@@H]4C[C@H](O)CC[C@]4(C)[C@H]3C[C@H](O)[C@]12C [Cholate, cholic acid]	−	+		−			
CCCCCCCCO[C@@H]1O[C@H](CO)[C@@H](O)[C@H](O)[C@H]1O [OG, n-octyl-B-D-glucopyranoside]	−	+		+	about 0.03%		
C[C@H](CCC(=O)NCCC[N+](C)(C)CC(O)CS(=O)(=O)[O-])[C@H]1CC[C@H]2[C@@H]3[C@H](O)C[C@@H]4C[C@H](O)CC[C@]4(C)[C@H]3C[C@H](O)[C@]12C (stereo partly drawn) [CHAPSO, 3-[(3-Chloramidopropyl)-dimethylammonio]-2-hydroxyl 1-propanesulfanate]	−	+					
CCCCCCCC(=O)O [Caprylate, caprylic acid]	−	+		−			
Triton X-100	−	+		+		immediate hemolysis	not nearly effective as Triton plus triclosan
CCCCCCCCCCCCCC[N+](C)(C)C.[Br-] [TTAB, tetradecyltrimethylammonium bromide]	−	+					
